Assay results published in patent US20210379079A1, “COMPOSITIONS COMPRISING CD20 INHIBITORS AND BISFLUOROALKYL-1,4-BENZODIAZEPINONE COMPOUNDS AND METHODS OF USE THEREOF” (Ayala Pharmaceuticals Inc., priority 2018, published 2021).

Columns and labels:
Assay in all cases: Cell surface CD20 levels by flow cytometry (FACS) after GSI treatment
Type in all cases: cell-based
SUDHL-4 cells = conditions: SUDHL-4 (DLBCL); for CD20 levels: separate experiment, 0.001-10 μM, 7 days at 37° C., FIG. 2
Procedure: (§1) The effect of γ-secretase inhibitors (GSIs) on levels of CD20 in lymphoma cell lines was examined (FIG. 1). Cells from five different lymphoma cell lines (SP49 (mantle cell lymphoma (MCL) with Notch4 GOF); Toledo (Diffuse large B-cell lymphoma (DLBCL)); RC (Double Hit DLBCL-MYC, BCL2); SUDHL-4 (DLBCL); and SUDHL-6 (DLBCL)) were treated for 7 days with 0, 1 nM, 10 nM, 100 nM, 500 nM, 1000 nM, and 10000 nM of the following GSIs: Compound 1 (FIG. 1A) or Compound 22 (FIG. 1B). Cell surface CD20 levels were observed by flow cytometry (FACS analysis).
(§2) In a separate experiment, cells from lymphoma cell lines SUDHL-4 (DLBCL); Rec-1 (MCL); and SP49 (MCL) were seeded at 1×10^4 cells/well in a total volume of 250 μl into a 96-well plate. The cells were cultured in RPMI supplemented with 10% FCS.
(§3) Compound 1 or Compound 22 were added to the cell cultures at concentrations of 10, 1, 0.5, 0.1, 0.01, 0.001 μM. Following 7 days of incubation at 37° C., the cells were collected and stained with anti CD20 antibody and cell surface CD20 levels were immediately analyzed by flow cytometry (FACS analysis).

SP49 cells = conditions: for cell surface CD20 levels: SP49 (MCL with Notch4 GOF), 7 days, 0-10000 nM, FIGS. 1A-1B
Procedure: as §1, §2, §3

Rec-1 (MCL) = conditions: separate experiment, 0.001-10 μM, 7 days at 37° C., FIG. 2
Procedure: as §2, §3

With `Cc1cccc2c1NC(=O)[C@@H](NC(=O)[C@H](CCC(F)(F)F)[C@H](CCC(F)(F)F)C(N)=O)N=C2c1cccc(F)c1` [Compound 22, (2R,3S)-N-((3S)-5-(3-fluorophenyl)-9-methyl-2-oxo-2,3-dihydro-1H-1,4-benzodiazepin-3-yl)-2,3-bis(3,3,3-trifluoropropyl)succinamide] the CD20 levels (SUDHL-4 cells) was “dose-dependent increase in CD20 levels”, the “cell surface CD20 levels” value (SP49 cells) was “increased cell surface CD20 levels” and the CD20 levels (Rec-1 (MCL)) was “dose-dependent increase in CD20 levels”.

In the case of `CN1C(=O)[C@@H](NC(=O)[C@H](CCC(F)(F)F)[C@H](CCC(F)(F)F)C(N)=O)N=C(c2ccccc2)c2ccccc21` [Compound 1, (2R,3S)-N-((3S)-1-methyl-2-oxo-5-phenyl-2,3-dihydro-1H-1,4-benzodiazepin-3-yl)-2,3-bis(3,3,3-trifluoropropyl)succinamide], the “cell surface CD20 levels” value (SUDHL-4 cells; 7 days, 0-10000 nM, FIG. 1A) is reported as “increased cell surface CD20 levels”, the CD20 levels (SUDHL-4 cells) is reported as “dose-dependent increase in CD20 levels” and the “cell surface CD20 levels” value (SP49 cells) is reported as “increased cell surface CD20 levels”. For the same compound, the CD20 levels (SP49 cells; separate experiment, SP49 (MCL), 0.001-10 μM, 7 days at 37° C., FIG. 2) was “dose-dependent increase in CD20 levels” and the CD20 levels (Rec-1 (MCL)) was “dose-dependent increase in CD20 levels”.
